Experimental data published in patent US8785457B2 (Cellzome Limited, priority 2009, dated 2014).

Experiments:
PI3 Kbeta (PI3 Kb) = biological target: T1, PI3 Kbeta (PI3 Kb) (Homo sapiens, UniProt P42338); experiment: kinobeads assay, PI3Kbeta; format: binding; details: Further Kinobeads Data; read-out: PI3Kb
T1 construct: endogenous in cells; host or cells: cell lysate
Procedure, shortened: (§1)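 Read-out is multiplexed immunodetection of kinase eluted from phenylmorpholin-chromen ligand beads after their incubation in cell lysate with test compound at various concentrations. Reduced capture reflects competition, and per-kinase dose-response curves yield IC50.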

[1] = test system: S6RP serine-240/244 phosphorylation; experiment: In vitro Phospho-S6 cellular assay (pS6RP S240/244) in HEK293T/17 cells; format: cell-based; details: Homo sapiens, 2 hours, read-out: pS6 IC50
Procedure, shortened: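 HEK293T/17 cells were seeded at 40,000 (pS6RP) or 80,000 (pAkt) cells/well in DMEM with 2% FCS. They were exposed to 8 compound concentrations (0.1% DMSO) for 2 h at 37 °C and then lysed. Phosphoprotein was quantified by MesoScale electrochemiluminescence sandwich immunoassay, and the sigmoidal variable-slope dose-response was fitted.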

PI3Kalpha (PI3Ka) = biological target: T2, PI3Kalpha (PI3Ka) (Homo sapiens, UniProt P42336); experiment: kinobeads assay, PI3Kalpha; format: binding; details: Further Kinobeads Data; for IC50: read-out: PI3Ka
T2 construct: endogenous in cells; host or cells: cell lysate
T2 sequence (P42336 whole entry): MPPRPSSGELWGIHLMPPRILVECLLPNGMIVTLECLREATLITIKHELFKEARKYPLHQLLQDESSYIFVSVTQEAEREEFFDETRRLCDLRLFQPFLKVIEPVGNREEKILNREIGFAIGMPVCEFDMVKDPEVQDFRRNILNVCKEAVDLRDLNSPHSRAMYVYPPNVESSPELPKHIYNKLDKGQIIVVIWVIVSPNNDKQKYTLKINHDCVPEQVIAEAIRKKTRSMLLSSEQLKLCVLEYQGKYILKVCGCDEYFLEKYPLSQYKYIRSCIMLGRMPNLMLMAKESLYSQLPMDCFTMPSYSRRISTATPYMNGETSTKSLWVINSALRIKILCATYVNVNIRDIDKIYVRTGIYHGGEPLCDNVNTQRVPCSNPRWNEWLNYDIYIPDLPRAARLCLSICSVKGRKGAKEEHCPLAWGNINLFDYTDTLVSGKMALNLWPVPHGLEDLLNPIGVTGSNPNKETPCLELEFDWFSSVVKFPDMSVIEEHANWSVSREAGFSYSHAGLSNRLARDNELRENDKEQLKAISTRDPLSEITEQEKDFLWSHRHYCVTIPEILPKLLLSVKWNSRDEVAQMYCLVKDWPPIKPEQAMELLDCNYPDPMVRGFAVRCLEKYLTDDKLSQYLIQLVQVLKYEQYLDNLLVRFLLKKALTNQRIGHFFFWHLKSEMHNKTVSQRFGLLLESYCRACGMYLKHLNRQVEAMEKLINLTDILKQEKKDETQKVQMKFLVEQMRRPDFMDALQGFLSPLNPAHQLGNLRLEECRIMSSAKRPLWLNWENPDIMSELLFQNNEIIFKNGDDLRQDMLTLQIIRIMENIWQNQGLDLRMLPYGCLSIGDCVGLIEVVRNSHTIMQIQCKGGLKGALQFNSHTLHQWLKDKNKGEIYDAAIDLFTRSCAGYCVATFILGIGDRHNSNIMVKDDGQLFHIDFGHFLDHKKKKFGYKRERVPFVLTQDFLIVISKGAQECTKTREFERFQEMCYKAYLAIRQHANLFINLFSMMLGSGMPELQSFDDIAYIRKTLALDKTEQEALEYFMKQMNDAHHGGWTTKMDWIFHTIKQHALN
T2 sequence (P27986 whole entry partner): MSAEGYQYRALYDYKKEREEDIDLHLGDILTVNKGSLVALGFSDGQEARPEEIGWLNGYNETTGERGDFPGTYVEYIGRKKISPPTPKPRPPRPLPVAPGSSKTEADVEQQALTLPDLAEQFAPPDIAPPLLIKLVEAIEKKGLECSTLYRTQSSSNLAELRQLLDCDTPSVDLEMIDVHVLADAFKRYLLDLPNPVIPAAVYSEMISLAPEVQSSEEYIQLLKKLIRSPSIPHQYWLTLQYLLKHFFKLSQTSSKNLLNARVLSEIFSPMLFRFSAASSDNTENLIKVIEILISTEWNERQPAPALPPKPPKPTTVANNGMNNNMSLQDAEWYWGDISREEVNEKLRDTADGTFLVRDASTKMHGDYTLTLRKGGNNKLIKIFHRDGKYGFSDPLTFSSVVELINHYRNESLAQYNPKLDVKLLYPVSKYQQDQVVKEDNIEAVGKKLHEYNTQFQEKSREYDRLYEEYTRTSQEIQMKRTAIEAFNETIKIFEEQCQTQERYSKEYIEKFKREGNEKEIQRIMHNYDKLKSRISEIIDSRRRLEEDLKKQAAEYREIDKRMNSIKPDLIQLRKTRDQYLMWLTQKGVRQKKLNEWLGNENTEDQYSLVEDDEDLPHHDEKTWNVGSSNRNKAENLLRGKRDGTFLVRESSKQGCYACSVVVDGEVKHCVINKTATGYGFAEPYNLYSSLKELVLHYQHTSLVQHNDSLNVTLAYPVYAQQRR
Procedure, shortened: as §1

T1 sequence (P42338 whole entry): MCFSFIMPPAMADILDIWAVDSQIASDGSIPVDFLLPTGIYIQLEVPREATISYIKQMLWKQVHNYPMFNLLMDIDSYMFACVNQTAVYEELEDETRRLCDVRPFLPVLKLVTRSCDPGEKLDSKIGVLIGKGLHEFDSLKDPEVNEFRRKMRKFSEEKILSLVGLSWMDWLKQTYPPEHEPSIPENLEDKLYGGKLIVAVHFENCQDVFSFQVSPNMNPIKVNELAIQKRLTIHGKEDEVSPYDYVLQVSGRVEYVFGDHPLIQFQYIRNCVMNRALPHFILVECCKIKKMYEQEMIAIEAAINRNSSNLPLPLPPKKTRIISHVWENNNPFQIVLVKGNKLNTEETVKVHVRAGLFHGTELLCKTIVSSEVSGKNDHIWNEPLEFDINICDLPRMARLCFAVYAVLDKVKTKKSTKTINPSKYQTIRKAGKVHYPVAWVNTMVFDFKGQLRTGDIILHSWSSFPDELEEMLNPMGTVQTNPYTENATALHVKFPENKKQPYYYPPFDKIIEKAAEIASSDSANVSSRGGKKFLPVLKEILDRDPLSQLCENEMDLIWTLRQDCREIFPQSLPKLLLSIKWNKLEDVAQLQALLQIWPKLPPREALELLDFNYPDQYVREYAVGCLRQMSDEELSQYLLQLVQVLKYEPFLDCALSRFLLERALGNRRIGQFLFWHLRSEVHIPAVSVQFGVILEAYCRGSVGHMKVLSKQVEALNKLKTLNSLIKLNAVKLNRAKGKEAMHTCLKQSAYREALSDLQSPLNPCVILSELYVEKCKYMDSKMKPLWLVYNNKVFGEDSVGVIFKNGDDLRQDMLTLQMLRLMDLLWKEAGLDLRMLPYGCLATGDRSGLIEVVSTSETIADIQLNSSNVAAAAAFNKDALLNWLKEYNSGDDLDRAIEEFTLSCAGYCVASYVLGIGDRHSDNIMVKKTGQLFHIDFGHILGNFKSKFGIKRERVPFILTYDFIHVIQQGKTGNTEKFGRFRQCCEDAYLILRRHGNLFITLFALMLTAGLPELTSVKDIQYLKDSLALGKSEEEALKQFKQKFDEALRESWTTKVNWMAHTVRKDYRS
T1 sequence (P27986 whole entry partner): as the sequence (P27986 whole entry partner) above

SMILES | IC50 (PI3 Kbeta (PI3 Kb)) | IC50 [1] | PI3Ka (PI3Kalpha (PI3Ka)) | IC50 (PI3Kalpha (PI3Ka))
COC(=O)N1Cc2nc(-c3ccc(NC(=O)NC4CC4)cc3F)nc(N3CCOC[C@@H]3C)c2C1 [Example 146, (S)-methyl 2-(4-(3-cyclopropylureido)-2-fluorophenyl)-4-(3-methylmorpholino)-5H-pyrrolo[3,4-d]pyrimidine-6(7H)-carboxylate] | > 10 µM | 0.096 µM | D (D >10 μM) | –
C[C@H]1COCCN1c1nc(-c2ccc(NC(=O)NC3CC3)cc2F)nc2c1CN(C)C2 [Example 147, (S)-1-cyclopropyl-3-(3-fluoro-4-(6-methyl-4-(3-methylmorpholino)-6,7-dihydro-5H-pyrrolo[3,4-d]pyrimidin-2-yl)phenyl)urea] | > 10 µM | 0.282 µM | D (D >10 μM) | –
CCNC(=O)Nc1ccc(-c2nc3c(c(N4CCOC[C@@H]4C)n2)CN(C(=O)OC(C)(C)C)C3)c(F)c1 [Example 153, (S)-tert-butyl 2-(4-(3-ethylureido)-2-fluorophenyl)-4-(3-methylmorpholino)-5H-pyrrolo[3,4-d]pyrimidine-6-(7H)-carboxylate] | > 10 µM | 0.14 µM | D (D >10 μM) | –
CC(=O)N1Cc2nc(-c3ccc(NC(=O)NC4CC4)cc3F)nc(N3CCOC[C@@H]3C)c2C1 [Example 155, (S)-1-(4-(6-acetyl-4-(3-methylmorpholino)-6,7-dihydro-5H-pyrrolo[3,4-d]pyrimidin-2-yl)-3-fluorophenyl)-3-cyclopropylurea] | > 10 µM | 0.815 µM | D (D >10 μM) | –
CN1Cc2nc(-c3ccc(NC(=O)NC4CC4)cc3F)nc(N3CCOCC3)c2C1 [Example 159, 1-(Cyclopropyl)-3-(3-fluoro-4-(6-methyl-4-morpholino-6,7-dihydro-5H-pyrrolo[3,4-d]pyrimidin-2-yl)phenyl)urea] | > 10 µM | 0.271 µM | – | 1 to 10 µM
CCNC(=O)Nc1ccc(-c2nc3c(c(N4CCOC[C@@H]4C)n2)CN(C)C3)c(F)c1 [Example 160, (S)-1-ethyl-3-(3-fluoro-4-(6-methyl-4-(3-methylmorpholino)-6,7-dihydro-5H-pyrrolo[3,4-d]pyrimidin-2-yl)phenyl)urea] | > 10 µM | 0.355 µM | D (D >10 μM) | –
C[C@H]1COCCN1c1nc(-c2ccc(NC(=O)NC3CC3)cc2F)nc2c1CCNC2 [Example 163, (S)-1-cyclopropyl-3-(3-fluoro-4-(4-(3-methylmorpholino)-5,6,7,8-tetrahydropyrido[3,4-d]pyrimidin-2-yl)phenyl)urea] | > 10 µM | 0.405 µM | D (D >10 μM) | –
CCNC(=O)Nc1ccc(-c2nc3c(c(N4CCOC[C@@H]4C)n2)CCNC3)c(F)c1 [Example 164, (S)-1-ethyl-3-(3-fluoro-4-(4-(3-methylmorpholino)-5,6,7,8-tetrahydropyrido[3,4-d]pyrimidin-2-yl)phenyl)urea] | > 10 µM | 0.51 µM | D (D >10 μM) | –
C[C@H]1COCCN1c1nc(-c2ccc(NC(=O)NC3CC3)cc2F)nc2c1CCN(C(=O)N(C)C)C2 [Example 165, (S)-2-(4-(3-cyclopropylureido)-2-fluorophenyl)-N,N-dimethyl-4-(3-methylmorpholino)-5,6-dihydropyrido[3,4-d]pyrimidine-7(8H)-carboxamide] | > 10 µM | 0.045 µM | D (D >10 μM) | –
CC(C)N1Cc2nc(-c3ccc(NC(=O)NC4CC4)cc3F)nc(N3CCOC[C@@H]3C)c2C1 [Example 172, (S)-1-cyclopropyl-3-(3-fluoro-4-(6-isopropyl-4-(3-methylmorpholino)-6,7-dihydro-5H-pyrrolo[3,4-d]pyrimidin-2-yl)phenyl)urea] | > 10 µM | 0.187 µM | – | 1 to 10 µM
CC(C)C(=O)N1Cc2nc(-c3ccc(NC(=O)NC4CC4)cc3F)nc(N3CCOC[C@@H]3C)c2C1 [Example 174, (S)-1-cyclopropyl-3-(3-fluoro-4-(6-isobutyryl-4-(3-methylmorpholino)-6,7-dihydro-5H-pyrrolo[3,4-d]pyrimidin-2-yl)phenyl)urea] | > 10 µM | 0.545 µM | D (D >10 μM) | –
CCNC(=O)Nc1ccc(-c2nc3c(c(N4CCOC[C@@H]4C)n2)CCN(C(=O)N(C)C)C3)c(F)c1 [Example 176, (S)-2-(4-(3-ethylureido)-2-fluorophenyl)-N,N-dimethyl-4-(3-methylmorpholino)-5,6-dihydropyrido[3,4-d]pyrimidine-7(8H)-carboxamide] | 1 to 10 µM | 0.076 µM | – | 1 to 10 µM
C[C@H]1COCCN1c1nc(-c2ccc(NC(=O)NC3CC3)cc2F)nc2c1CN(S(C)(=O)=O)C2 [Example 177, (S)-1-cyclopropyl-3-(3-fluoro-4-(4-(3-methylmorpholino)-6-(methylsulfonyl)-6,7-dihydro-5H-pyrrolo[3,4-d]pyrimidin-2-yl)phenyl)urea] | > 10 µM | 0.41 µM | D (D >10 μM) | –
C[C@H]1COCCN1c1nc(-c2ccc(NC(=O)NC3CC3)cc2F)nc2c1CN(C(=O)N(C)C)C2 [Example 178, (S)-2-(4-(3-cyclopropylureido)-2-fluorophenyl)-N,N-dimethyl-4-(3-methylmorpholino)-5H-pyrrolo[3,4-d]pyrimidine-6(7H)-carboxamide] | > 10 µM | 0.163 µM | D (D >10 μM) | –

Other lines, results leading:

IC50 (PI3 Kbeta (PI3 Kb)) | IC50 [1] | PI3Ka (PI3Kalpha (PI3Ka)) | IC50 (PI3Kalpha (PI3Ka)) | SMILES
> 10 µM | 0.153 µM | – | 1 to 10 µM | CCNC(=O)Nc1ccc(-c2nc3c(c(N4CCOCC4)n2)CN(C(=O)OCC)C3)c(F)c1 [Example 151, Ethyl 2-(4-(3-ethylureido)-2-fluorophenyl)-4-morpholino-5H-pyrrolo[3,4-d]pyrimidine-6(7H)-carboxylate]
> 10 µM | 0.093 µM | D (D >10 μM) | – | CCNC(=O)Nc1ccc(-c2nc3c(c(N4CCOC[C@@H]4C)n2)CN(C(=O)OC)C3)c(F)c1 [Example 152, (S)-methyl 2-(4-(3-ethylureido)-2-fluorophenyl)-4-(3-methylmorpholino)-5H-pyrrolo[3,4-d]pyrimidine-6-(7H)-carboxylate]
> 10 µM | 0.436 µM | D (D >10 μM) | – | CCNC(=O)Nc1ccc(-c2nc3c(c(N4CCOCC4)n2)CN(C)C3)c(F)c1 [Example 154, 1-ethyl-3-(3-fluoro-4-(6-methyl-4-morpholino-6,7-dihydro-5H-pyrrolo[3,4-d]pyrimidin-2-yl)phenyl)urea]
> 10 µM | 0.135 µM | D (D >10 μM) | – | CCOC(=O)N1Cc2nc(-c3ccc(NC(=O)NC4CC4)cc3F)nc(N3CCOCC3)c2C1 [Example 156, Ethyl 2-(4-(3-cyclopropylureido)-2-fluorophenyl)-4-morpholino-5H-pyrrolo[3,4-d]pyrimidine-6(7H)-carboxylate]
1 to 10 µM | 0.114 µM | – | 1 to 10 µM | CCNC(=O)Nc1ccc(-c2nc3c(c(N4CCOCC4)n2)CN(C(=O)OC)C3)c(F)c1 [Example 162, methyl 2-(4-(3-ethylureido)-2-fluorophenyl)-4-morpholino-5H-pyrrolo[3,4-d]pyrimidine-6(7H)-carboxylate]
1 to 10 µM | 0.615 µM | D (D >10 μM) | – | CCOC(=O)N1Cc2nc(-c3ccc(NC(=O)NCCO)cc3F)nc(N3CCOC[C@@H]3C)c2C1 [Example 167, (S)-Ethyl 2-(2-fluoro-4-(3-(2-hydroxyethyl)ureido)phenyl)-4-(3-methylmorpholino)-5H-pyrrolo[3,4-d]pyrimidine-6(7H)-carboxylate]
> 10 µM | 0.097 µM | – | 1 to 10 µM | CCOC(=O)N1Cc2nc(-c3ccc(NC(=O)NCCF)cc3F)nc(N3CCOC[C@@H]3C)c2C1 [Example 168, (S)-ethyl 2-(2-fluoro-4-(3-(2-fluoroethyl)ureido)phenyl)-4-(3-methylmorpholino)-5H-pyrrolo[3,4-d]pyrimidine-6(7H)-carboxylate]
> 10 µM | 0.105 µM | D (D >10 μM) | – | CCOC(=O)N1Cc2nc(-c3ccc(NC(=O)NCCF)cc3F)nc(N3CCOCC3)c2C1 [Example 170, ethyl 2-(2-fluoro-4-(3-(2-fluoroethyl)ureido)phenyl)-4-morpholino-5H-pyrrolo[3,4-d]pyrimidine-6(7H)-carboxylate]
> 10 µM | 0.983 µM | D (D >10 μM) | – | CCOC(=O)N1Cc2nc(-c3ccc(NC(=O)NCCO)cc3F)nc(N3CCOCC3)c2C1 [Example 171, ethyl 2-(2-fluoro-4-(3-(2-hydroxyethyl)ureido)phenyl)-4-morpholino-5H-pyrrolo[3,4-d]pyrimidine-6(7H)-carboxylate]
> 10 µM | 0.172 µM | D (D >10 μM) | – | COC(=O)N1Cc2nc(-c3ccc(NC(=O)NC4CC4)cc3F)nc(N3CCOCC3)c2C1 [Example 173, Methyl 2-(4-(3-cyclopropylureido)-2-fluorophenyl)-4-morpholino-5H-pyrrolo[3,4-d]pyrimidine-6(7H)-carboxylate]
> 10 µM | 0.063 µM | D (D >10 μM) | – | CCOC(=O)N1Cc2nc(-c3ccc(NC(=O)NC4CC4)cc3F)nc(N3CCOC[C@H]3C)c2C1 [Example 179, (R)-ethyl 2-(4-(3-cyclopropylureido)-2-fluorophenyl)-4-(3-methylmorpholino)-5H-pyrrolo[3,4-d]pyrimidine-6(7H)-carboxylate]
